According to PubChem BioAssay AID1348 (Sanford-Burnham Center for Chemical Genomics, 2008):
Calls of active or inactive are those of the source.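 The calls were made as follows: active = cell survival above 50% at 25 µM despite a drug that triggers cell death; inactive = the rest.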

test system: CSM14.1 staurosporine-induced death rescue, ATPlite, 24 h; test: protection against staurosporine-triggered CSM14.1 death, SAR follow-up, selectivity assay for ER stress death inhibitor project, cell-based, undifferentiated CSM14.1, ATP luminescence (AID 1348); conditions: at 25 µM; active compounds read high

SMILES | survival
COc1ccc(C2CC(=O)C3=C(C2)Nc2ccccc2NC3c2cccc(Oc3ccccc3)c2)cc1OC (stereo unspecified) | 11% (inactive)
CC1(C)CC(=O)C2=C(C1)Nc1ccccc1NC2c1ccc(-c2ccccc2)cc1 (stereo unspecified) | 13% (inactive)
CCCOc1ccc(C2Nc3ccccc3NC3=C2C(=O)CC(c2ccc(OC)c(OC)c2)C3)cc1 (stereo unspecified) | 12% (inactive)
CSc1ccc(C2Nc3ccccc3NC3=C2C(=O)CC(c2ccccc2)C3)cc1 (stereo unspecified) | 8% (inactive)
O=C1CC(c2ccccc2)CC2=C1C(c1c(F)cccc1Cl)Nc1ccccc1N2 (stereo unspecified) | 8% (inactive)
COc1ccc(C2CC(=O)C3=C(C2)Nc2ccccc2NC3c2cccc(Br)c2)cc1OC (stereo unspecified) | 10% (inactive)
CCOc1cc(C2Nc3ccccc3NC3=C2C(=O)CC(c2ccc(OC)cc2)C3)cc(Cl)c1O (stereo unspecified) | 9% (inactive)
CCOc1cccc(C2Nc3ccccc3NC3=C2C(=O)CC(c2ccc(OC)cc2)C3)c1 (stereo unspecified) | 8% (inactive)
COc1ccc(C2CC(=O)C3=C(C2)Nc2ccccc2NC3c2cc(C)ccc2C)cc1 (stereo unspecified) | 9% (inactive)
COc1ccc(C2CC(=O)C3=C(C2)Nc2ccccc2NC3c2ccccc2C(F)(F)F)cc1OC (stereo unspecified) | 6% (inactive)
COc1ccc(C2CC(=O)C3=C(C2)Nc2ccccc2NC3c2cccc(C(F)(F)F)c2)cc1OC (stereo unspecified) | 10% (inactive)
